# Tests used:
# [1] = test system: antibodies in sera from SARS patients (sera 1a, 1b, 2, 6, 37, 62, London, SARS-yellow, SARS-green); assay type: binding, human; set-up: Binding of serum 6 to linear peptides of protein X1 of SARS-CoV Urbani / Binding of serum 37 to linear peptides of protein X1 of SARS-CoV Urbani / Binding of serum 6 to looped/cyclic peptide (PEPSCAN-ELISA) / Binding of serum 37 to looped/cyclic peptide (PEPSCAN-ELISA) / Binding of serum 37 to looped/cyclic peptides of protein X1 of SARS-CoV Urbani / Binding of serum 6 to linear peptides of protein X2 / Binding of serum 37 to linear peptides of protein X2 / Binding of serum 37 to looped/cyclic peptides of protein X2 of SARS-CoV Urbani / Binding of serum 6 to linear peptides of protein M of SARS-CoV Urbani / Binding of serum 37 to linear peptides of protein M of SARS-CoV Urbani / Binding of serum 6 to looped/cyclic peptides of protein M of SARS-CoV Urbani / Binding of serum 37 to looped/cyclic peptides of protein M of SARS-CoV Urbani / Binding of serum 6 to linear peptides of protein X3 of SARS-CoV Urbani / Binding of serum 37 to linear peptides of protein X3 of SARS-CoV Urbani / Binding of serum 37 to looped/cyclic peptides of protein X3 of SARS-CoV Urbani / Binding of serum 6 to linear peptides of protein X4 of SARS-CoV Urbani / Binding of serum 37 to linear peptides of protein X4 of SARS-CoV Urbani / Binding of serum 37 to looped/cyclic peptides of protein X4 of SARS-CoV Urbani / Binding of serum 6 to linear peptides of protein X5 of SARS-CoV Urbani / Binding of serum 37 to linear peptides of protein X5 of SARS-CoV Urbani / Binding of serum 37 to looped/cyclic peptides of protein X5 of SARS-CoV Urbani / Binding of serum 6 to linear peptides of protein N of SARS-CoV Urbani / Binding of serum 37 to linear peptides of protein N of SARS-CoV Urbani / Binding of serum 6 to linear peptide (PEPSCAN-ELISA) / Binding of serum 1a to looped/cyclic peptides of protein N of SARS-CoV Urbani / Binding of serum 1b to looped/cyclic peptides of protein N of SARS-CoV Urbani / Binding of serum 2 to looped/cyclic peptides of protein N of SARS-CoV Urbani / Binding of serum 6 to looped/cyclic peptides of protein N of SARS-CoV Urbani / Binding of serum 37 to looped/cyclic peptides of protein N of SARS-CoV Urbani / Binding of serum 62 to looped/cyclic peptides of protein N of SARS-CoV Urbani / Binding of serum London to looped/cyclic peptides of protein N of SARS-CoV Urbani / Binding of serum SARS-green to looped/cyclic peptides of protein N of SARS-CoV Urbani: unit not given here
# [2] = test system: control sera (pooled serum of ten healthy LUMC hospital workers; commercial negative donor pooled serum from the Dutch bloodbank); assay type: binding, human; set-up: Binding of Control serum LUMC to linear peptides / Binding of Control serum Blood-bank to linear peptides / Binding of Control serum LUMC to looped peptides / Binding of Control Serum Blood-Bank to Looped peptides / Binding of Control serum LUMC to linear peptides of the protein M of SARS-CoV Urbani / Binding of Control serum Blood-bank to linear peptides of the protein M of SARS-CoV Urbani / Binding of Control serum LUMC to looped peptides of the protein M of SARS-CoV Urbani / Binding of Control Serum Blood-Bank to Looped peptides of the protein M of SARS-CoV Urbani: unit not given here
# [3] = test system: rabbit serum obtained by immunizing a rabbit with the SARS-CoV strain Frankfurt 1; assay type: binding; set-up: Binding of a rabbit serum to linear peptides / Binding of a rabbit serum to looped peptides / Rabbit serum linear peptides / Rabbit serum looped peptides / Binding of a rabbit serum to linear peptides of protein N of SARS-CoV Urbani (Rabbit serum linear peptides) / Binding of a rabbit serum to looped/cyclic peptides of protein N of SARS-CoV Urbani (Rabbit serum looped peptides): unit not given here
# [4] = test system: recombinant human anti-SARS-CoV antibody 03-018; assay type: binding; set-up: Binding of antibody 03-018 to linear peptides of the N protein of SARS-CoV Urbani / Binding of antibody 03-018 to looped/cyclic peptides of the N protein of SARS-CoV Urbani: unit not given here
Sequence,Binding of serum 1a to linear peptides of protein N of SARS-CoV Urbani [1],Binding of serum 1a to looped/cyclic peptides of protein N of SARS-CoV Urbani [1],Binding of serum 1b to linear peptides of protein N of SARS-CoV Urbani [1],Binding of serum 1b to looped/cyclic peptides of protein N of SARS-CoV Urbani [1],Binding of serum 2 to linear peptides of protein N of SARS-CoV Urbani [1],Binding of serum 2 to looped/cyclic peptides of protein N of SARS-CoV Urbani [1],Binding of serum 6 to linear peptides of protein N of SARS-CoV Urbani [1],Binding of serum 6 to looped/cyclic peptides of protein N of SARS-CoV Urbani [1],Binding of serum 37 to linear peptides of protein N of SARS-CoV Urbani [1],Binding of serum 37 to looped/cyclic peptides of protein N of SARS-CoV Urbani [1],Binding of serum 62 to linear peptides of protein N of SARS-CoV Urbani [1],Binding of serum 62 to looped/cyclic peptides of protein N of SARS-CoV Urbani [1],Binding of serum London to linear peptides of protein N of SARS-CoV Urbani [1],Binding of serum London to looped/cyclic peptides of protein N of SARS-CoV Urbani [1],Binding of serum SARS-green to linear peptides of protein N of SARS-CoV Urbani [1],Binding of serum SARS-yellow to linear peptides of protein N of SARS-CoV Urbani [1],Binding of a rabbit serum to linear peptides of protein N of SARS-CoV Urbani (Rabbit serum linear peptides) [3],Binding of a rabbit serum to looped/cyclic peptides of protein N of SARS-CoV Urbani (Rabbit serum looped peptides) [3],Binding of antibody 03-018 to linear peptides of the N protein of SARS-CoV Urbani [4],Binding of antibody 03-018 to looped/cyclic peptides of the N protein of SARS-CoV Urbani [4],further results
PKKDKKKKTDEAQPL,0.2,0.2,0.1,0.1,2.5,0.2,0.2,0.1,0.7,0.4,0.7,0.3,0.5,0.3,0.1,0.5,0.1,0.0,0.1,0.2,Binding of serum SARS-green to looped/cyclic peptides of protein N of SARS-CoV Urbani [1]: 0.1; Binding of serum SARS-yellow to looped/cyclic peptides of protein N of SARS-CoV Urbani [1]: 0.2; Control Serum Blood-Bank Looped peptides [2]: 0.4; Control serum Blood-bank linear peptides [2]: 0.8; Control serum LUMC linear peptides [2]: 0.8; Control serum LUMC looped peptides [2]: 0.3
PKQRRPQGLPNNTAS,0.2,0.5,0.1,0.5,0.4,0.8,0.2,0.4,0.9,0.8,0.7,0.7,0.6,0.6,0.6,0.6,0.2,0.2,0.2,0.3,Binding of serum SARS-green to looped/cyclic peptides of protein N of SARS-CoV Urbani [1]: 3.1; Binding of serum SARS-yellow to looped/cyclic peptides of protein N of SARS-CoV Urbani [1]: 0.9; Binding of Control Serum Blood-Bank to Looped peptides [2]: 0.8; Binding of Control serum Blood-bank to linear peptides [2]: 0.8; Binding of Control serum LUMC to linear peptides [2]: 0.7; Binding of Control serum LUMC to looped peptides [2]: 1.0
PLPQRQKKQPTVTLL,0.2,–,0.1,–,0.2,–,0.2,–,0.5,–,0.6,–,1.0,–,0.2,1.0,0.1,0.7,0.1,0.3,"Recognition of the peptide by sera of SARS-CoV infected individuals, and form (linear, looped/cyclic) in which it is recognized [1]: recognized in looped/cyclic form; Control Serum Blood-Bank Looped peptides [2]: 1.1; Control serum Blood-bank linear peptides [2]: 0.7; Control serum LUMC linear peptides [2]: 0.5; Control serum LUMC looped peptides [2]: 1.1"
PNNNAATVLQLPQGT,0.2,0.5,0.1,0.4,0.2,0.8,0.1,0.3,0.6,1.0,0.6,0.9,0.5,0.7,0.3,0.7,0.0,0.2,0.1,0.3,Binding of serum SARS-green to looped/cyclic peptides of protein N of SARS-CoV Urbani [1]: 0.7; Binding of serum SARS-yellow to looped/cyclic peptides of protein N of SARS-CoV Urbani [1]: 0.5; Binding of Control Serum Blood-Bank to Looped peptides [2]: 0.9; Binding of Control serum Blood-bank to linear peptides [2]: 0.6; Binding of Control serum LUMC to linear peptides [2]: 0.6; Binding of Control serum LUMC to looped peptides [2]: 0.8
PQRQKKQPTVTLLPA,0.3,–,0.2,–,0.3,–,0.2,–,0.7,–,0.7,–,0.5,–,0.5,0.6,0.2,0.7,0.1,0.3,"Recognition of the peptide by sera of SARS-CoV infected individuals, and form (linear, looped/cyclic) in which it is recognized [1]: recognized in looped/cyclic form; Control Serum Blood-Bank Looped peptides [2]: 0.9; Control serum Blood-bank linear peptides [2]: 0.8; Control serum LUMC linear peptides [2]: 0.7; Control serum LUMC looped peptides [2]: 0.7"

# Source: patent US20070128217A1 (priority 2003, published 2007)
